For 35 molecules, melting point results are on record in a melting point compilation (Tetko et al.; mined from patent text by program, amines drawn as free bases though some values may be those of a salt).

Regarding `O=C(O)C1CNC(C(=O)O)c2[nH]c3ccccc3c21` (stereo not given), the melting point lay in the range of 230 to 231 °C.

For the molecule `CCOC(=O)c1cc(SCc2ccccc2)c(Cl)c(S(N)(=O)=O)c1`, the melting point was determined as 182 °C.

`CN1C(=O)NC(=O)C(C=O)C1=O` (stereo not given) returned a melting point of 197 to 199 °C.

On to `COc1cc2ncnc(N3CCC(C(C)(O)CN4CCCS4(=O)=O)CC3)c2cc1OC` (stereo not given), for which the melting point lay within 173 to 174 °C. The molecule `N#C/C=C/c1ccc(Cl)cc1Cl` displayed a melting point of 156 °C. On to `CC1(C)CC(=O)C2=C(C1)NC1=C(C(=O)CC(C)(C)C1)C2c1ccc(Cl)c(Oc2ccccc2)c1`, for which the melting point was in the range of 246 to 248 °C.

`CC(C)(C)[Si](C)(C)Oc1ccc2cc3c(cc2c1)C(=O)c1cc2ccc(O[Si](C)(C)C(C)(C)C)cc2cc1C3=O` came in with a melting point of under 270 °C. The value for `O=C(c1ccc(F)cc1)N1CCCC(c2nc(-c3cccc(F)c3)no2)C1` (stereo not given) was 86 to 89 °C; that for `O=C(O)C(Br)CCCCCc1ccc(Cl)cc1` (stereo not given) was 77 to 79 °C; that for `CCC(=O)C(Cc1cc(O)c(O)c([N+](=O)[O-])c1)C(=O)CC` was 126 to 131 °C. The value for `N#Cc1c(N2CCN(C(=O)c3ccco3)CC2)c2cc(Cl)cnc2n(Cc2ccccc2)c1=O` was 196 °C; that for `CC1OC(n2c(Br)nc3cc(Cl)c(Cl)cc32)C(O)C1O` (stereo not given) was 85 to 86 °C; that for `OC(CCc1ccc(Cl)s1)Cn1ccnc1` (stereo not given) was 82 to 84.5 °C. Next, `COC(=O)c1c(C=O)cccc1Oc1nc(OC)cc(OC)n1`: 91 to 93 °C. In turn, `BrCCc1ccc2c(c1)CCO2` had a melting point of 60 to 62 °C. Turning to `COC(=O)c1cccc(OCCN2CCN(c3cc(Cl)nnc3Cl)CC2)c1`, the melting point was in the range of 105 to 107 °C. Take `O=C(C1CCC1)N1CCC2(CC1)Cc1ccccc1O2`: the melting point lay in the range of 91 to 93 °C.

Take `O=C(O)[C@@H]1CSC(c2ccccc2O)N1C(=O)CCS` (stereo not given in full): the melting point fell in the range of 146 to 148 °C. The value for `CCOC(=O)NC1CCN(Cc2ccccc2)CC1` was 100 °C; that for `COc1cc2c(cc1OC(=O)C=Cc1ccccc1)C1Cc3c(Cl)cc(OC)c(OC(=O)C=Cc4ccccc4)c3CN1CC2` (stereo not given) was 240 to 242 °C. In the case of `O=c1oc(-c2ccccc2)nc2ccc(Br)cc12`, the melting point is 199 to 201 °C. The value for `O=C(O)COc1ccc(SCc2ccc(OCc3cc(Cl)ccc3Cl)cc2)c2c1CCCO2` was 98 to 100 °C. In turn, `COCCNC(=O)c1ccc(SC)c([N+](=O)[O-])c1` displayed a melting point of 117 to 118 °C. Next, `COC(=O)c1cc(Br)cc(-c2ccc3c(c2)C(C)(C)CCC3(C)C)c1`: 88 °C; `CSCC[C@H](NC(=O)[C@@H](N)CC(C)C)[C@@H](O)c1nccs1`: 83 to 85 °C; `Cc1nc2c3c(c(C(=O)N(C)CCO)cc2n1C)CCC1(Cc2ccccc2C1)N3`: 194 to 195 °C. Molecule `COc1cccc(C23CCCC=C2C(=O)N(CCc2ccc(C)cc2)C(=O)C3)c1` (stereo not given) returned a melting point of 134 to 140 °C. The value for `Cc1ccc(S(=O)(=O)N2CCN(S(=O)(=O)c3ccc(C)cc3)[C@@H](c3ccccc3)C2)cc1` was 258 °C; that for `N#Cc1cccc(-c2ccc(=O)n(Cc3cccc(-c4ncc(O)cn4)c3)n2)c1` was 245 to 248 °C.

In turn, `CC(C)NC(=O)Nc1ccc2c(c1Cl)C(c1ccccc1F)=NCC(=O)N2C` displayed a melting point of 130 to 140 °C. The value for `COc1ccc(F)c([N+](=O)[O-])c1C` was 38 to 40 °C.

`Cc1ccc2c3c(ccc2n1)OCC(CN1CC=C(c2cc4ccccc4s2)CC1)O3` (stereo not given) had a melting point of 174 to 176 °C. The value for `CCc1n[nH]c(CC)c1CCCCCCOc1ccc(OC)cc1[N+](=O)[O-]` was 103 to 105 °C; that for `O=C1N(Cc2ccc(Cl)o2)c2ccccc2C12COc1cc3c(cc12)OCO3` (stereo not given) was 148 to 150 °C; that for `CSC(=O)NCc1c[nH]c2ccccc12` was 110 to 111 °C.
